What was measured:
Format in all cases: biochemical
[1] = target: T1, human VEGFR-2 (Val789-Val1356) (Homo sapiens, UniProt P35968); test: KDR kinase assay (HTScan VEGFR-2 kit, DELFIA); conditions: for inhibition at 1 µM: read-out: KDR 1 μM, % of inhibition relative to control; for inhibition at 0.1 µM: read-out: KDR 0.1 μM, % of inhibition relative to control
T1 construct: human VEGFR-2 (Val789-Val1356); GST (N); purchased Cell Signaling Technology; host or cells: baculovirus expression system
Outline: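 GST-tagged human VEGFR-2 (Val789-Val1356) from baculovirus, with 1.5 μM biotinylated gastrin precursor peptide and 20 μM ATP in HEPES pH 7.5, Mg/Mn, vanadate, DTT, 1% DMSO. Pre-incubation 5 min, reaction 30 min at room temperature; phosphorylation read by DELFIA.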

[2] = target: T2, human EGFR (His672-Ala1210) (Homo sapiens, UniProt P00533); test: EGFR kinase assay (HTScan kit, DELFIA); conditions: for inhibition at 0.1 µM: read-out: EGFR 0.1 μM, % of inhibition relative to control; for inhibition at 1 µM: read-out: EGFR 1 μM, % of inhibition relative to control
T2 construct: human EGFR (His672-Ala1210); GST (N); purchased Cell Signaling Technology; host or cells: baculovirus expression system
Procedure: Compounds 1-100 were treated for their efficacy in inhibiting activities of FLT-3, c-KIT, KDR/Flk-1, PDGFR-beta, EGFR, and PKC kinases by biochemical DELFIA (Dissociation Enhanced Lanthanide FIA) assays according to the procedure described below. The assays were conducted by, Division of Cell Engineering, Biomedical Engineering Research Laboratories, Industrial Technology Research Institute, Bldg. 53, 195, sec. 4, Chung Hsing Rd. Chutung, Hsinchu, Taiwan 310, R.O.C.
The EGFR assay was conducted following the protocol described in Protocol for HTScan® EGFR Kinase Assay Kit (Cell Signaling Technology®). The assay was conducted under the following conditions: EGFR source: The GST-kinase fusion protein was produced using a baculovirus expression system with a construct expressing human EGFR (His672-Ala1210) (GenBank Accession No. NM_005228) with an amino-terminal GST tag, substrate: 1.5 μM This biotinylated peptide contains the residues surrounding Tyr-66 of PTP1B, vehicle: 1% DMSO, pre-incubation time/temperature: 5 minutes at room temperature, incubation time/temperature: 30 minutes at room temperature, incubation buffer: 60 mM HEPES pH 7.5, 5 mM MgCl2, 5 mM MnCl2, 3 μM Na3VO4, 1.25 mM DTT, 20 μM ATP, and quantitative method: DELFIA® Assay.

[3] = target: T3, human FLT-3 (Arg571-Ser993) (Homo sapiens, UniProt P36888); test: FLT-3 kinase assay (HTScan kit, DELFIA); conditions: for inhibition at 0.1 µM: read-out: FLT-3 0.1 μM, % of inhibition relative to control; for inhibition at 1 µM: read-out: FLT-3 1 μM, % of inhibition relative to control
T3 construct: human FLT-3 (Arg571-Ser993); GST (N); purchased Cell Signaling Technology; host or cells: baculovirus expression system
T3 sequence (P36888 571-993): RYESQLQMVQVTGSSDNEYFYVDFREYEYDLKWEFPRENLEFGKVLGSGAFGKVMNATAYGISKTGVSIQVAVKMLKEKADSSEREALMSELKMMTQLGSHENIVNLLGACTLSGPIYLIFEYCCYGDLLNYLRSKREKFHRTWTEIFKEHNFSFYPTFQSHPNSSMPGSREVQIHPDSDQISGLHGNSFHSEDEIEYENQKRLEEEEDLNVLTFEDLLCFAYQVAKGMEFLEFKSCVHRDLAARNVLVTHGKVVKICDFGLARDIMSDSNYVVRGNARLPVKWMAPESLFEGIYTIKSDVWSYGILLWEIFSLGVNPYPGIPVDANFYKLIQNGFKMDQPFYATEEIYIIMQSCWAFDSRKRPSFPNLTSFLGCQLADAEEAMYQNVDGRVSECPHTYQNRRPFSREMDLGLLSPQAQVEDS
Outline: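 GST-tagged human FLT-3 (Arg571-Ser993, baculovirus-expressed) phosphorylated 1.5 μM biotinylated gastrin precursor peptide with 20 μM ATP in HEPES pH 7.5, Mg/Mn buffer and 1% DMSO. After 5 min preincubation, the reaction ran 30 min at room temperature. Phosphorylation was read by DELFIA.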

[4] = target: T4, human c-KIT (Thr544-Val976) (Homo sapiens, UniProt P10721); test: c-KIT kinase assay (HTScan kit, DELFIA); conditions: for inhibition at 0.1 µM: read-out: c-KIT 0.1 μM, % of inhibition relative to control; for inhibition at 1 µM: read-out: c-KIT 1 μM, % of inhibition relative to control
T4 construct: human c-KIT (Thr544-Val976); GST (N); purchased Cell Signaling Technology; host or cells: baculovirus expression system
Outline: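 GST-tagged human c-KIT (Thr544-Val976) from baculovirus, with 1.5 μM biotinylated KDR Tyr-996 peptide and 20 μM ATP in HEPES pH 7.5 buffer containing Mg2+/Mn2+ and 1% DMSO. Enzyme and compound pre-incubated 5 min, reaction run 30 min at room temperature; phosphorylation detected by DELFIA.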

T1 sequence (P35968 789-1356): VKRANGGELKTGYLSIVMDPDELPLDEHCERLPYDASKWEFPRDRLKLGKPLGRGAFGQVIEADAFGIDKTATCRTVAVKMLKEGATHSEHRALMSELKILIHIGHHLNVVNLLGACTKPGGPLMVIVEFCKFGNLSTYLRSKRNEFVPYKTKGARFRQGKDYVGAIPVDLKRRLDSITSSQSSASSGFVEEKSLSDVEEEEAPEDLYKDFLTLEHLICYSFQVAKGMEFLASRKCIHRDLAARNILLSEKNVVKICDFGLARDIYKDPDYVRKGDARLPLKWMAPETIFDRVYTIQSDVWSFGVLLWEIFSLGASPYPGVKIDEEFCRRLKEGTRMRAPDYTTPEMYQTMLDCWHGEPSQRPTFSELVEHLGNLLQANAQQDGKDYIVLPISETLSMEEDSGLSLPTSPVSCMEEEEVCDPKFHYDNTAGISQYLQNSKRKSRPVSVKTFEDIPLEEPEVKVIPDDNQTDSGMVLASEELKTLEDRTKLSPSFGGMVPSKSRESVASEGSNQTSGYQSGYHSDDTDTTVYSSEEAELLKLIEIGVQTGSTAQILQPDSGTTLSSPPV
T4 sequence (P10721 544-976): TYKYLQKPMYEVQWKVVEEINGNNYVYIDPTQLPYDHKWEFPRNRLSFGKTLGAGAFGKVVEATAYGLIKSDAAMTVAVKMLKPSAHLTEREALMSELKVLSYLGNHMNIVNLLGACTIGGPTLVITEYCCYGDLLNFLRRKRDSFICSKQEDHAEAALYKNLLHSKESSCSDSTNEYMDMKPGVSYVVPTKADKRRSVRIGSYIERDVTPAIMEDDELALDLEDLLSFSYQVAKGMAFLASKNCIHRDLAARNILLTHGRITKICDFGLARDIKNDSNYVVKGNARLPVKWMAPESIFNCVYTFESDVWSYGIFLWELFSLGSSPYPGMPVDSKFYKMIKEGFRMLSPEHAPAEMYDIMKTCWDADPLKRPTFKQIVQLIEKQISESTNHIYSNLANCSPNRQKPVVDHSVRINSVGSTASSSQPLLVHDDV
T2 sequence (P00533 672-1210): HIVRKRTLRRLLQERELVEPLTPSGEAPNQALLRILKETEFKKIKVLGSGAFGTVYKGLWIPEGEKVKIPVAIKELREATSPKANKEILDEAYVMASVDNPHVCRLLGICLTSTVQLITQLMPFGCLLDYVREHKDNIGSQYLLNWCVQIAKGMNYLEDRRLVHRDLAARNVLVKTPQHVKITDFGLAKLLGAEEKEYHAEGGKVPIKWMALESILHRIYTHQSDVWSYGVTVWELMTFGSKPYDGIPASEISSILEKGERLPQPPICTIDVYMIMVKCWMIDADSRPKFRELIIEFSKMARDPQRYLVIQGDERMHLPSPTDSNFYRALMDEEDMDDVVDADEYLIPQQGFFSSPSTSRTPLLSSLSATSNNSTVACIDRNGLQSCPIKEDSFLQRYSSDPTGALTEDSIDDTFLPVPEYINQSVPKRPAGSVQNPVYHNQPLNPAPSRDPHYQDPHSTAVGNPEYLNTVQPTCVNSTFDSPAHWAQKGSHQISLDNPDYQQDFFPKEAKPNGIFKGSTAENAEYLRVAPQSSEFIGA

SMILES | inhibition at 1 µM ([1]; compound at 1 μM) | inhibition at 0.1 µM ([2]; compound at 0.1 μM) | inhibition at 1 µM ([2]; compound at 1 μM) | inhibition at 0.1 µM ([3]; compound at 0.1 μM) | inhibition at 1 µM ([3]; compound at 1 μM) | inhibition at 0.1 µM ([4]; compound at 0.1 μM) | inhibition at 1 µM ([4]; compound at 1 μM) | inhibition at 0.1 µM ([1]; compound at 0.1 μM) | IC50 ([3]; read-out: FLT-3 kinase inhibition (IC50)) | IC50 ([4]; read-out: c-KIT kinase inhibition (IC50)) | KDR 0.1 μM, % of inhibition relative to control ([1]; compound at 0.1 μM) | KDR 1 μM, % of inhibition relative to control ([1]; compound at 1 μM) | FLT-3 0.1 μM, % of inhibition relative to control ([3]; compound at 0.1 μM) | FLT-3 1 μM, % of inhibition relative to control ([3]; compound at 1 μM) | EGFR 0.1 μM, % of inhibition relative to control ([2]; compound at 0.1 μM) | EGFR 1 μM, % of inhibition relative to control ([2]; compound at 1 μM) | c-KIT 0.1 μM, % of inhibition relative to control ([4]; compound at 0.1 μM) | c-KIT 1 μM, % of inhibition relative to control ([4]; compound at 1 μM)
COc1ccc2c(c1)/C(=C\c1ccc3cccccc1-3)C(=O)N2 [Compound 43, 3-Azulen-1-ylmethylene-5-methoxy-1,3-dihydro-indol-2-one] | 6.8% | 6.2% | 11.9% |  | 24.3% | 14.7% | 14.7% |  |  |  |  |  |  |  |  |  |  | 
O=C1Nc2ccc(F)cc2/C1=C/c1cc(Cl)c2cccccc1-2 [Compound 46, 3-(3-Chloro-azulen-1-ylmethylene)-5-fluoro-1,3-dihydro-indol-2-one] | 33.2% | 11% | 18.5% | 45.9% | 73.5% | 70.9% | 70.9% | 10% |  |  |  |  |  |  |  |  |  | 
O=C1Nc2ccc(F)cc2/C1=C/c1cc(Br)c2cccccc1-2 [Compound 45, 3-(3-Bromo-azulen-1-ylmethylene)-5-fluoro-1,3-dihydro-indol-2-one] | 41.9% | 2.5% |  | 51.4% | 69.7% | 73.9% | 73.9% | 32.8% |  |  |  |  |  |  |  |  |  | 
COc1ccc2c(c1)/C(=C/c1ccc3cccccc1-3)C(=O)N2 [Compound 44, 3-Azulen-1-ylmethylene-5-methoxy-1,3-dihydro-indol-2-one] | 38.4% | 4.7% | 9.3% | 5.7% | 8.2% | 7.2% | 7.2% |  |  |  |  |  |  |  |  |  |  | 
CN(C)S(=O)(=O)c1ccc2c(c1)/C(=C/c1ccc3cccccc1-3)C(=O)N2 [Compound 50, (3Z)-3-(((3aZ,5Z,7Z)-azulen-1-yl)methylene)-5-(N,N-dimethylsulfonyl)indolin-2-one] |  |  |  |  |  |  |  |  |  |  | 22.3% | 25.8% | 4.0% | 29.6% | 7.9% | 10.4% | 19.5% | 19.5%
Cc1ccc2c(c1)/C(=C\c1ccc3cccccc1-3)C(=O)N2 [Compound 47, 3-Azulen-1-ylmethylene-5-methyl-1,3-dihydro-indol-2-one] | 34% | 8.3% | 14.6% | 0.5% | 48.6% | 30.7% | 30.7% | 7.8% |  |  |  |  |  |  |  |  |  | 
O=C1Nc2c(Cl)cccc2/C1=C/c1ccc2cccccc1-2 [Compound 42, 3-Azulen-1-ylmethylene-7-chloro-1,3-dihydro-indol-2-one] | 13.6% | 8.8% | 10.8% | 8.9% | 24.3% | 8.3% | 8.3% | 6% |  |  |  |  |  |  |  |  |  | 
Cc1cc(/C=C2/C(=O)Nc3ccc(F)cc32)c2cccccc1-2 [Compound 38, 5-Fluoro-3-(3-methyl-azulen-1-ylmethylene)-1,3-dihydro-indol-2-one] | 8.4% | 0.8% | 1.7% | 40.5% | 79% | 72.6% | 72.6% | 2.3% |  |  |  |  |  |  |  |  |  | 

Continued, values first:

inhibition at 1 µM ([1]; compound at 1 μM) | inhibition at 0.1 µM ([2]; compound at 0.1 μM) | inhibition at 1 µM ([2]; compound at 1 μM) | inhibition at 0.1 µM ([3]; compound at 0.1 μM) | inhibition at 1 µM ([3]; compound at 1 μM) | inhibition at 0.1 µM ([4]; compound at 0.1 μM) | inhibition at 1 µM ([4]; compound at 1 μM) | inhibition at 0.1 µM ([1]; compound at 0.1 μM) | IC50 ([3]; read-out: FLT-3 kinase inhibition (IC50)) | IC50 ([4]; read-out: c-KIT kinase inhibition (IC50)) | KDR 0.1 μM, % of inhibition relative to control ([1]; compound at 0.1 μM) | KDR 1 μM, % of inhibition relative to control ([1]; compound at 1 μM) | FLT-3 0.1 μM, % of inhibition relative to control ([3]; compound at 0.1 μM) | FLT-3 1 μM, % of inhibition relative to control ([3]; compound at 1 μM) | EGFR 0.1 μM, % of inhibition relative to control ([2]; compound at 0.1 μM) | EGFR 1 μM, % of inhibition relative to control ([2]; compound at 1 μM) | c-KIT 0.1 μM, % of inhibition relative to control ([4]; compound at 0.1 μM) | c-KIT 1 μM, % of inhibition relative to control ([4]; compound at 1 μM) | SMILES
20.3% | 9.5% | 12.1% |  |  |  |  |  |  |  |  |  |  |  |  |  |  |  | CN(C)c1nc2cccccc-2c1/C=C1/C(=O)Nc2ccccc21 [Compound 35, 3-(2-Dimethylamino-cyclohepta[b]pyrrol-3-ylmethylene)-1,3-dihydro-indol-2-one, with propan-2-ol]
27.6% | 2.9% | 13.6% | 5.9% | 61.5% | 53.2% | 53.2% |  |  |  |  |  |  |  |  |  |  |  | Cc1cc(C=C2C(=O)Nc3ccccc32)c2cccccc1-2 [Compound 37, 3-(3-Methyl-azulen-1-ylmethylene)-1,3-dihydro-indol-2-one]
30.4% | 6.4% | 9.4% | 74.7% | 87.6% | 76.6% | 76.6% | 25.2% | 43.4 nM | 6 nM |  |  |  |  |  |  |  |  | O=C1Nc2ccc(F)cc2/C1=C/c1cc2cccccc-2c1 [Compound 41, 3-Azulen-2-ylmethylene-5-fluoro-1,3-dihydro-indol-2-one]
6.2% | 7.7% | 13.7% | 48.5% | 89.5% | 60.3% | 60.3% |  |  |  |  |  |  |  |  |  |  |  | O=C1Nc2ccccc2/C1=C\c1cc2cccccc-2c1 [Compound 32, 3-Azulen-2-ylmethylene-1,3-dihydro-indol-2-one]
0.3% | 9.6% | 10.9% |  | 39.3% | 49.2% | 49.2% |  |  |  |  |  |  |  |  |  |  |  | Cc1cc(/C=C2/C(=O)Nc3ccccc32)c2cccccc1-2 [Compound 36, 3-(3-Methyl-azulen-1-ylmethylene)-1,3-dihydro-indol-2-one]
18.2% | 6.1% | 11.7% | 0.8% | 1.9% |  |  | 8.9% |  |  |  |  |  |  |  |  |  |  | O=C1Nc2ccc(-c3ccccc3)cc2/C1=C/c1ccc2cccccc1-2 [Compound 34, 3-Azulen-1-ylmethylene-5-phenyl-1,3-dihydro-indol-2-one]
50.8% | 15.2% | 13% | 50.5% | 85.6% | 63.1% | 63.1% | 24.6% |  |  |  |  |  |  |  |  |  |  | O=C1Nc2ccccc2/C1=C/c1cc2cccccc-2c1 [Compound 33, 3-Azulen-2-ylmethylene-1,3-dihydro-indol-2-one]
13.8% | 7.8% | 10.4% | 4.5% | 61.6% | 32.2% | 32.2% |  |  |  |  |  |  |  |  |  |  |  | Cc1ccc2c(c1)/C(=C/c1ccc3cccccc1-3)C(=O)N2 [Compound 48, 3-Azulen-1-ylmethylene-5-methyl-1,3-dihydro-indol-2-one]

Reference: patent US7714146B2, “Azulene-oxindole compounds as multiple-kinase inhibitors and useful as anticancer agents” (Industrial Technology Research Institute, priority 2006, dated 2010)
